What was measured:
DAGLα (hDAGLα-FLAG) = DAGLα (hDAGLα-FLAG) (Homo sapiens (Human), UniProt Q9Y4D2); test: competitive ABPP, membrane proteome of transfected HEK293T cells; type: biochemical; conditions: for inhibition at 0.4 µM: read-out: DAGLα % inh. 0.4 μM; for inhibition at 0.0032 µM: 3.2 nM, read-out: DAGLα % inh. 3.2 nM
Experimental: (§1) Compounds 19 and 20 were tested for in vitro inhibition of DAGLα and DAGLβ as measured by competitive activity-based protein profiling (ABPP) of […] using a HT-01 probe (targets DAGLα and DAGLβ) and a FP-Rh probe (targets serine hydrolases).
(§2) Briefly, membrane proteome (1 mg/ml, 20 μL) was prepared from HEK293T cells (transiently transfected with hDAGLα-FLAG or hDAGLα-S472A-FLAG, hDAGLβ-FLAG or hDAGLβ-S443A-FLAG) as described in Example 16. The proteome was incubated at room temperature with vehicle (DMSO) or compound in 0.5 μL DMSO for 30 min. The membrane proteome sample was subsequently treated for 30 min with HT-01 probe (1 μM) or FP-Rh probe (1 μM). The reactions were quenched with 10 μL 3× Laemmli sample buffer (final concentrations: 60 mM Tris-Cl pH 6.8, 2% (w/v) SDS, 10% (v/v) glycerol, 5% (v/v) (3-mercaptoethanol, 0.01% (v/v) bromophenol blue). The samples were directly loaded and resolved on SDS page gel (10% acrylamide). The gels were scanned using a ChemiDoc MP system (Cy3 settings, 605/50 filter).
(§3) The resolved proteins were transferred from the gels to a polyvinyldifluoride membrane for Western Blotting using a Trans-Blot® Turbo (BioRad). FLAG-tagged enzymes were stained using rabbit anti-FLAG as primary antibody, and goat-anti-rabbit HRP as secondary antibody. The blot was developed in the dark using a 10 mL luminal solution, 100 μL ECL enhancer and 3 μL H2O2. Chemiluminescence was visualized using a ChemiDoc XRS (BioRad).
(§4) The percentage of DAGL activity remaining in the assayed samples was determined by measuring the integrated optical intensity of the fluorescent protein bands of the Western Blot using image lab 4.1. The relative intensity was compared to the vehicle (DMSO) treated proteins, which were set to 100%. IC50 values were determined by plotting a log(inhibitor) vs. normalized response (Variable slope) dose-response curve generated using Prism software (GraphPad).

DAGLβ (hDAGLβ-FLAG) = DAGLβ (hDAGLβ-FLAG) (Homo sapiens (Human), UniProt Q8NCG7); test: as above; type: biochemical; conditions: for inhibition at 0.4 µM: read-out: DAGLβ % inh. 0.4 μM; for inhibition at 0.0032 µM: read-out: DAGLβ % inh. 3.2 nM
DAGLβ (hDAGLβ-FLAG), sequence (Q8NCG7 whole entry): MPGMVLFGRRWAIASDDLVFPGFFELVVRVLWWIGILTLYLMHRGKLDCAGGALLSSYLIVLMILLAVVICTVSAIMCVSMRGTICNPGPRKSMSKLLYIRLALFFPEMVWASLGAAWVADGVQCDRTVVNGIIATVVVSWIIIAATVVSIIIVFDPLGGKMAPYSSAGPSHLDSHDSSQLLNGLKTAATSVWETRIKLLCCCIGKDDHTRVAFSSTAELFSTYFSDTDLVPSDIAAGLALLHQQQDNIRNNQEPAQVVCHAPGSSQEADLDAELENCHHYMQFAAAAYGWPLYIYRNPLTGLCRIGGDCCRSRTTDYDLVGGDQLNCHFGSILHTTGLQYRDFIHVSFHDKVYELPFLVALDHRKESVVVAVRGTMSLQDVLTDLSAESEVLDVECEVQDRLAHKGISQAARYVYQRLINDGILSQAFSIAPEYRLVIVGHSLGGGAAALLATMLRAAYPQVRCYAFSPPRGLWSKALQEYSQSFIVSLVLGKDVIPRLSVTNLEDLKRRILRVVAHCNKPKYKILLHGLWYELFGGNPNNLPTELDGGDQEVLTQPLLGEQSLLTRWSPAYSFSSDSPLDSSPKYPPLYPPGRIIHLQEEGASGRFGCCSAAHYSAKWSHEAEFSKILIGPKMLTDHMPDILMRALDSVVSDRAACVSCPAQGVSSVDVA
Experimental: as §1, §2, §3, §4

DAGLα (hDAGLα-FLAG), sequence (Q9Y4D2 whole entry): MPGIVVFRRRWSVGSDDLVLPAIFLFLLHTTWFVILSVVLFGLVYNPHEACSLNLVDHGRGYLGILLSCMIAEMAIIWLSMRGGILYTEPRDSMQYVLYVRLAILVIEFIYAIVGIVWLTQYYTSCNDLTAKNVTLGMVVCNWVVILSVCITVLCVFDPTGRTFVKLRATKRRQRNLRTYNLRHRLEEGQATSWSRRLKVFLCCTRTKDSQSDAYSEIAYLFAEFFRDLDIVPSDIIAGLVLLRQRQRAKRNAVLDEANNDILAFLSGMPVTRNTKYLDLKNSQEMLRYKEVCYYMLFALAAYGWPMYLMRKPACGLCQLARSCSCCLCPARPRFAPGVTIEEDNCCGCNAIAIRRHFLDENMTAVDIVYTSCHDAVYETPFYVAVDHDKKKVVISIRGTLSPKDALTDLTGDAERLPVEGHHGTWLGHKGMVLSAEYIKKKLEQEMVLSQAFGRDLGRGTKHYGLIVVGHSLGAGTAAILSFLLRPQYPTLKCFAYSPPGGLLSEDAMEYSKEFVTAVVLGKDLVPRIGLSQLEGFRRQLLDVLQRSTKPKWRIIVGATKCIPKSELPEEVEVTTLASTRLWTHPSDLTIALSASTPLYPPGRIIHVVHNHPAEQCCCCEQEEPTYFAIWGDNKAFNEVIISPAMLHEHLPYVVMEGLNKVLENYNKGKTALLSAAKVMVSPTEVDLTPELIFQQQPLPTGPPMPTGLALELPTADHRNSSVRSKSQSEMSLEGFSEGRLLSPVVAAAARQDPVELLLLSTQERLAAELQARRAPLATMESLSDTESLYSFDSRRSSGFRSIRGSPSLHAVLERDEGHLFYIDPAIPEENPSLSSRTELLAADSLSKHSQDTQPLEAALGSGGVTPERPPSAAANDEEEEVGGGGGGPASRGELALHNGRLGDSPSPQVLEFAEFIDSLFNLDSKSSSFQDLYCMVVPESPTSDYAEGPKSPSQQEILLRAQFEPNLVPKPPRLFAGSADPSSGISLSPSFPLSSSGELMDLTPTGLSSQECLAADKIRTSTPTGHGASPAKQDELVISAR

| inhibition at 0.4 µM (DAGLα (hDAGLα-FLAG)) | inhibition at 0.4 µM (DAGLβ (hDAGLβ-FLAG)) | inhibition at 0.0032 µM (DAGLα (hDAGLα-FLAG)) | inhibition at 0.0032 µM (DAGLβ (hDAGLβ-FLAG)) | SMILES |
| --- | --- | --- | --- | --- |
| 0 to 25% | 0 to 25% |  |  | COC(=O)N1CCN(C(=O)n2ncc(-c3ccc(OC(F)(F)F)cc3)n2)C(Cc2ccccc2)C1 (stereo not drawn) [Compound 98, methyl 3-benzyl-4-(4-(4-(trifluoromethoxy)phenyl)-2H-1,2,3-triazole-2-carbonyl)piperazine-1-carboxylate] |
| 0 to 25% | 0 to 25% |  |  | CC(C)(C)OC(=O)N1CCN(C(=O)n2ncc(-c3ccc(OC(F)(F)F)cc3)n2)C(Cc2ccccc2)C1 (stereo not drawn) [Compound 99, tert-butyl 3-benzyl-4-(4-(4-(trifluoromethoxy)phenyl)-2H-1,2,3-triazole-2-carbonyl)piperazine-1-carboxylate] |
| ≥ 75% | ≥ 75% |  |  | CC(C)(C)OC(=O)N1CCN(C(=O)n2cc(-c3ccc(OC(F)(F)F)cc3)nn2)[C@H](Cc2ccccc2)C1 [Compound 100, tert-butyl (R)-3-benzyl-4-(4-(4-(trifluoromethoxy)phenyl)-1H-1,2,3-triazole-1-carbonyl)piperazine-1-carboxylate] |
|  |  | 0 to 25% | 0 to 25% | O=C(N1CCC=C[C@@H]1COCc1ccccc1)n1cc(-c2ccc(OC(F)(F)F)cc2)nn1 [Compound 106, (R)-(6-((benzyloxy)methyl)-3,6-dihydropyridin-1(2H)-yl)(4-(4-(trifluoromethoxy)phenyl)-1H-1,2,3-triazol-1-yl)methanone] |
|  |  | 0 to 25% | 0 to 25% | O=C(N1CCC=C[C@@H]1COCc1ccccc1)n1ncc(-c2ccc(OC(F)(F)F)cc2)n1 [Compound 107, (R)-(6-((benzyloxy)methyl)-3,6-dihydropyridin-1(2H)-yl)(4-(4-(trifluoromethoxy)phenyl)-2H-1,2,3-triazol-2-yl)methanone] |

More lines, now with the values behind:

| SMILES | inhibition at 0.4 µM (DAGLα (hDAGLα-FLAG)) | inhibition at 0.4 µM (DAGLβ (hDAGLβ-FLAG)) | inhibition at 0.0032 µM (DAGLα (hDAGLα-FLAG)) | inhibition at 0.0032 µM (DAGLβ (hDAGLβ-FLAG)) |
| --- | --- | --- | --- | --- |
| CC(C)(C)OC(=O)N1CCN(C(=O)n2cc(-c3ccc(OC(F)(F)F)cc3)nn2)[C@@H](Cc2ccccc2)C1 [Compound 102, tert-butyl (S)-3-benzyl-4-(4-(4-(trifluoromethoxy)phenyl)-1H-1,2,3-triazole-1-carbonyl)piperazine-1-carboxylate] | ≥ 75% | ≥ 75% |  |  |
| O=C(N1CCCC[C@@H]1Cc1ccccc1)n1ncc(-c2ccc(OC(F)(F)F)cc2)n1 [Compound 104, (R)-(2-benzylpiperidin-1-yl)(4-(4-(trifluoromethoxy)phenyl)-2H-1,2,3-triazol-2-yl)methanone] |  |  | 0 to 25% | 0 to 25% |
| O=C(N1CCCC[C@H]1Cc1ccccc1)n1ncc(-c2ccc(OC(F)(F)F)cc2)n1 [Compound 105, (S)-(2-benzylpiperidin-1-yl)(4-(4-(trifluoromethoxy)phenyl)-2H-1,2,3-triazol-2-yl)methanone] |  |  | 0 to 25% | 0 to 25% |
| O=C(N1CCC=C[C@H]1COCc1ccccc1)n1cc(-c2ccc(OC(F)(F)F)cc2)nn1 [Compound 108, (S)-(6-((benzyloxy)methyl)-3,6-dihydropyridin-1(2H)-yl)(4-(4-(trifluoromethoxy)phenyl)-1H-1,2,3-triazol-1-yl)methanone] |  |  | 0 to 25% | 0 to 25% |
| O=C(N1CCC=C[C@H]1COCc1ccccc1)n1ncc(-c2ccc(OC(F)(F)F)cc2)n1 [Compound 109, (S)-(6-((benzyloxy)methyl)-3,6-dihydropyridin-1(2H)-yl)(4-(4-(trifluoromethoxy)phenyl)-2H-1,2,3-triazol-2-yl)methanone] |  |  | 0 to 25% | 0 to 25% |
| O=C(N1CCCCC1COc1ccccc1)n1cc(-c2ccc(OC(F)(F)F)cc2)nn1 (stereo not drawn) [Compound 110, (2-(phenoxymethyl)piperidin-1-yl)(4-(4-(trifluoromethoxy)phenyl)-1H-1,2,3-triazol-1-yl)methanone] |  |  | 0 to 25% | 0 to 25% |
| O=C(N1CCCCC1COc1ccccc1)n1ncc(-c2ccc(OC(F)(F)F)cc2)n1 (stereo not drawn) [Compound 111, (2-(phenoxymethyl)piperidin-1-yl)(4-(4-(trifluoromethoxy)phenyl)-2H-1,2,3-triazol-2-yl)methanone] |  |  | 0 to 25% | 0 to 25% |

Source: patent US10583137B2, “Triazole DAGLα inhibitors” (THE SCRIPPS RESEARCH INSTITUTE, priority 2015, dated 2020)
